Measured values reported in patent US8389679B2, “Targeted antimicrobial moieties” (priority 2009, dated 2013).
“Also recorded” adds a separate entry of the source.

System: target microorganisms
Experiment: Screen of synthesized peptides for binding to target microorganisms (targeting peptides, Tables 2 and 3)
Settings: microorganism(s) the targeting peptide was identified as binding to (Table 3)
Experimental: Once noted, these peptides were batch synthesized on a multiplex peptide synthesizer, yielding 5-10 mg of each peptide that could readily be screened for biological activity (e.g., binding activity and/or antimicrobial activity.
Other suitable targeting peptides include the peptides that have been identified as binding to particular target organisms as shown in Table 3 and/or Table 4.

Row | Substance | Target(s)
1 | 1T-1 (YVNYNQSFNSGW; synthetic novel tartgeting peptide IT-1) | S. mutans
2 | 1T-2 (NIFEYFLE; synthetic novel tartgeting peptide IT-2) | S. gordonii; also recorded: S. mitis; also recorded: S. oralis; also recorded: V. atypica; also recorded: Lactobacillus casei; also recorded: Saliva-derived biofilms; also recorded: S. mutans; also recorded: S. sanguinis
3 | 1T-3 (VLGIAGGLDAYGELVGGN; synthetic novel tartgeting peptide IT-3) | S. mutans; also recorded: S. gordonii
4 | 1T-4 (LDAYGELVGGN; synthetic novel tartgeting peptide IT-4) | S. mutans; also recorded: S. gordonii; also recorded: S. sanguinis; also recorded: S. oralis; also recorded: V. atypica; also recorded: L. casei
5 | 1T-5 (LGPIAGAAIGWDLGAISGAGLGWANFCQ; synthetic novel tartgeting peptide IT-5) | S. mutans; also recorded: S. sanguinis
6 | 1T-6 (KFINGVLSQFVLERK; synthetic novel tartgeting peptide IT-6) | S. mutans
7 | 1T-7 (SQRIIEPVKSPQPYPGFSVS; synthetic novel tartgeting peptide IT-7) | Myxococcus xanthus
8 | 1T-8 (FSVAACGEQRAVTFVLLIEDLI; synthetic novel tartgeting peptide IT-8) | M. xanthus
9 | 1T-9 (WAWAESPRCVSTRSNIHALAFRVEVAALT; synthetic novel tartgeting peptide IT-9) | M. xanthus
10 | 1T-10 (SPAGLPGDGDEA; synthetic novel tartgeting peptide IT-10) | M. xanthus
11 | 1T-11 (RISE; synthetic novel tartgeting peptide IT-11) | S. mutans; also recorded: S. epidermidis; also recorded: P. aeruginosa
12 | 1T-12 (FGNIFKGLKDVIETIVKWTAAK; synthetic novel tartgeting peptide IT-12) | Corynebacterium; also recorded: xerosis; also recorded: striatum; also recorded: S. epidermidis; also recorded: S. mutans
13 | 1T-13 (FRSPCINNNSLQPPGVYPAR; synthetic novel tartgeting peptide IT-13) | S. aureus; also recorded: S. epidermidis; also recorded: P. aeruginosa
14 | 1T-14 (ALAGLAGLISGK; synthetic novel tartgeting peptide IT-14) | S. mutans; also recorded: S. aureus; also recorded: S. epidermidis; also recorded: C. xerosis
15 | 1T-15 (DVILRVEAQ; synthetic novel tartgeting peptide IT-15) | S. mutans
16 | 1T-16 (IDMR; synthetic novel tartgeting peptide IT-16) | P. aeruginosa
17 | 1T-17 (NNAIVYIS; synthetic novel tartgeting peptide IT-17) | S. mutans
18 | 1T-18 (YSKTLHFAD; synthetic novel tartgeting peptide IT-18) | S. aureus; also recorded: S. epidermidis; also recorded: C. striatum; also recorded: P. aeruginosa
19 | 1T-19 (PGAFRNPQMPRG; synthetic novel tartgeting peptide IT-19) | S. aureus; also recorded: S. epidermidis; also recorded: P. aeruginosa
20 | 1T-20 (PALVDLSNKEAVWAVLDDHS; synthetic novel tartgeting peptide IT-20) | S. mutans; also recorded: P. aeruginosa
21 | 1T-21 (YVEEAVRAALKKEARISTEDTPVNLPSFDC; synthetic novel tartgeting peptide IT-21) | S. mutans; also recorded: P. aeruginosa
22 | 1T-22 (VPLDDGTRRPEVARNRDKDRED; synthetic novel tartgeting peptide IT-22) | S. epidermidis; also recorded: P. aeruginosa
23 | 1T-23 (PALVDLSNKEAVWAVLDDHS; synthetic novel tartgeting peptide IT-23) | S. mutans; also recorded: P. aeruginosa
24 | 1T-24 (EEAEEKLAEVSQAVKRLVR; synthetic novel tartgeting peptide IT-24) | P. aeruginosa
25 | 1T-25 (VGLDVSVLVLFFGLQLLSVLLGAMIR; synthetic novel tartgeting peptide IT-25) | S. aureus; also recorded: S. epidermidis; also recorded: C. xerosis; also recorded: C. striatum; also recorded: P. aeruginosa
26 | 1T-26 (LTILPTTFFAIIVPILAVAFIAYSGFKIKGIVEHKDQW; synthetic novel tartgeting peptide IT-26) | jeikeium; also recorded: C. xerosis; also recorded: C. striatum; also recorded: P. aeruginosa; also recorded: S. mutans; also recorded: S. aureus; also recorded: S. epidermidis; also recorded: Corynebacterium

Row | Substance | Target(s)
27 | 1T-27 (ALFVSLEQFLVVVAKSVFALCHSGTLS; synthetic novel tartgeting peptide IT-27) | S. mutans; also recorded: S. aureus; also recorded: S. epidermidis; also recorded: C. jeikeium; also recorded: C. xerosis; also recorded: C. striatum; also recorded: P. aeruginosa
28 | 1T-28 (VSRDEAMEFIDREWTTLQPAGKSHA; synthetic novel tartgeting peptide IT-28) | P. aeruginosa
29 | 1T-29 (GSVIKKRRKRMSKKKHRKMLRRTRVQRRKLGK; synthetic novel tartgeting peptide IT-29) | S. mutans; also recorded: S. aureus; also recorded: S. epidermidis; also recorded: C. jeikeium; also recorded: C. xerosis; also recorded: C. striatum; also recorded: P. aeruginosa
30 | 1T-30 (GKAKPYQVRQVLRAVDKLETRRKKGGR; synthetic novel tartgeting peptide IT-30) | S. aureus; also recorded: S. epidermidis; also recorded: C. xerosis; also recorded: C. striatum; also recorded: P. aeruginosa
31 | 1T-31 (NATGTDIGEVTLTLGRFS; synthetic novel tartgeting peptide IT-31) | S. mutans; also recorded: P. aeruginosa
32 | 1T-32 (VSFLAGWLCLGLAAWRLGNA; synthetic novel tartgeting peptide IT-32) | S. mutans
33 | 1T-33 (VRTLTILVIFIFNYLKSISYKLKQPFENNLAQSMISI; synthetic novel tartgeting peptide IT-33) | S. aureus; also recorded: S. epidermidis; also recorded: C. jeikeium; also recorded: C. xerosis; also recorded: C. striatum; also recorded: P. aeruginosa
34 | 1T-34 (AFWLNILLTLLGYIPGIVHAVYIIAKR; synthetic novel tartgeting peptide IT-34) | S. aureus; also recorded: S. epidermidis; also recorded: C. jeikeium; also recorded: C. xerosis; also recorded: C. striatum; also recorded: P. aeruginosa
35 | 1T-35 (EICLTLVFPIRGSYSEAAKFPVPIHIVEDGTVELPK; synthetic novel tartgeting peptide IT-35) | P. aeruginosa
36 | 1T-36 (VYRHLRFIDGKLVEIRLERK; synthetic novel tartgeting peptide IT-36) | S. aureus; also recorded: S. epidermidis; also recorded: C. jeikeium; also recorded: C. xerosis; also recorded: C. striatum; also recorded: P. aeruginosa
37 | 1T-37 (YIVGALVILAVAGLIYSMLRKA; synthetic novel tartgeting peptide IT-37) | S. mutans; also recorded: S. aereus; also recorded: S. epidermidis; also recorded: C. jeikeium; also recorded: C. xerosis; also recorded: C. striatum; also recorded: P. aeruginosa
38 | 1T-38 (VMFVLTRGRSPRPMIPAY; synthetic novel tartgeting peptide IT-38) | S. mutans; also recorded: S. aereus; also recorded: S. epidermidis; also recorded: C. jeikeium; also recorded: C. xerosis; also recorded: C. striatum; also recorded: P. aeruginosa
39 | 1T-39 (FGFCVWMYQLLAGPPGPPA; synthetic novel tartgeting peptide IT-39) | S. mutans; also recorded: P. aeruginosa
40 | 1T-40 (QRVSLWSEVEHEFR; synthetic novel tartgeting peptide IT-40) | S. mutans; also recorded: P. aeruginosa
41 | 1T-41 (KRGSKIVIAIAVVLIVLAGVWVW; synthetic novel tartgeting peptide IT-41) | S. mutans; also recorded: S. aureus; also recorded: S. epidermidis; also recorded: C. jeikeium; also recorded: C. striatum; also recorded: P. aeruginosa
42 | 1T-42 (TVLDWLSLALATGLFVYLLVALLRADRA; synthetic novel tartgeting peptide IT-42) | S. aureus; also recorded: S. epidermidis; also recorded: C. xerosis; also recorded: C. striatum; also recorded: P. aeruginosa
43 | 1T-43 (DRCLSVLSWSPPKVSPLI; synthetic novel tartgeting peptide IT-43) | C. jeikium; also recorded: P. aeruginosa
44 | 1T-44 (DPALADFAAGMRAQVRT; synthetic novel tartgeting peptide IT-44) | S. mutans; also recorded: S. aureus; also recorded: S. epidermidis; also recorded: C. jeikeium; also recorded: C. striatum; also recorded: P. aeruginosa
45 | 1T-45 (WTKPSFTDLRLGFEVTLYFANR; synthetic novel tartgeting peptide IT-45) | S. aureus; also recorded: S. epidermidis; also recorded: C. striatum; also recorded: P. aeruginosa
46 | 1T-46 (FSFKQRVMFRKEVERLR; synthetic novel tartgeting peptide IT-46) | S. aureus; also recorded: S. epidermidis; also recorded: C. jeikeium; also recorded: C. xerosis; also recorded: C. striatum; also recorded: P. aeruginosa
47 | 1T-47 (VIKISVPGQVQMLIP; synthetic novel tartgeting peptide IT-47) | S. mutans; also recorded: S. epidermidis; also recorded: P. aeruginosa
48 | 1T-48 (KLQVHHGRATHTLLLQPPLCAPGTIR; synthetic novel tartgeting peptide IT-48) | S. aureus; also recorded: S. epidermidis; also recorded: C. jeikeium; also recorded: C. xerosis; also recorded: C. striatum; also recorded: P. aeruginosa
49 | 1T-49 (SLVRIHDQQPWVTRGAFIDAARTCS; synthetic novel tartgeting peptide IT-49) | S. aureus; also recorded: S. epidermidis; also recorded: C. jeikeium; also recorded: P. aeruginosa
50 | 1T-50 (HSDEPIPNILFKSDSVH; synthetic novel tartgeting peptide IT-50) | P. aeruginosa
51 | 1T-51 (GKPKRMPAEFIDGYGQALLAGA; synthetic novel tartgeting peptide IT-51) | S. aureus; also recorded: P. aeruginosa
